This passage reports DC50 results from patent US20230295197A1, “STAT5 and STAT6 Degraders and Uses Thereof” (REGENTS OF THE UNIVERSITY OF MICHICAN, priority 2022, published 2023).

The term DC50 denotes the concentration at which degradation of the target reaches its halfway point.

Each structure is given as a SMILES string.

The experiment concerns STAT5. The experiment is described as follows: Immunoblotting (Western blot) analysis of STAT5 degradation efficiency of degraders in treated cells. The format is cell-based. Conditions: MOLM-16 cells, numeric bound, read-out: DC50 S5 MOLM-16. The protocol: Evaluation of the degradation efficiency of degraders may be accomplished by immunoblotting analysis. The representative general protocol is the following:
Cells are maintained in the appropriate culture medium with 10% FBS at 37° C. and an atmosphere of 5% CO2. Cell lines are used within three months of thawing fresh vials. Cells are lysed 1× Cell Lysis Buffer (Cell Signaling Technology, #9803), resolved by SDS-PAGE NuPAGE gel (Thermo Fisher Scientific), and transferred to a PVDF membrane (Millipore). Membranes are blocked using Odyssey TBS Blocker Buffer (LI-COR). IRDye 680RD and 800CW Dye-labeled secondary antibodies (LI-COR) are used. The washed membranes are scanned using Odyssey CLx imager (LI-COR). The intensity of Western blot signaling is quantitated using the Odyssey software. Primary antibodies used are: STAT5 Rabbit mAb (Cell Signaling Technology, #94205), STAT6 Rabbit mAb (Cell Signaling Technology, #5397) and GAPDH mouse monoclonal antibody (Santa Cruz Biotechnology, sc-47724).
To evaluate the degradation efficiency of degraders, immunoblotting analysis was performed. The general protocol is the following.
About 1 million cells for each data point were treated with compounds at indicated concentrations and durations. Untreated and treated cells in cell culture medium were transferred into tubes, followed by centrifugation at 3,000 rpm and 4° C. for 6 min Supernatants were removed from tubes and radioimmunoprecipitation assay (RIPA) lysis buffer supplemented with 1% protease inhibitor cocktail (Fisher Scientific cat. PI87786) and phosphatase inhibitor (Roche cat. 04906837001) were added to tubes containing the remaining cell pellets. The tubes were then left on ice for 30 min and placed in a −80° C. freezer. Subsequently they were thawed in 37° C. water, then centrifuged at 14,000 rpm for 15 min and the cell lysates transferred to new tubes. The concentration of total proteins in each tube was calculated using the Pierce BCA protein Assay kit (cat. 23225). Based on the calculated protein concentration, cell lysates containing approximately the same amount of proteins were transferred to new tubes, then distilled water and 4× Protein Sample Loading Buffer for Western Blots (LI-COR cat. 928-40004) supplemented with 20% of mercaptoethanol (Sigma Aldrich cat. M6250) were added on ice. The cell lysates were then reduced and denatured at 95° C. for 5 min. From the tubes containing cell lysates an equal amount of protein samples (20-40 μg) was loaded into precast 8%, 10%, 4%-12%, or 4%-20% Tris-glycine gels (Novex) filled with Tris-glycine SDS running buffer. After the proteins were resolved, they were transferred onto Immobile-FL PVDF Membrane (Millipore Sigma cat. IPFL00010), using Mini Trans-Blot Electrophoretic Transfer Cell (Bio-Rad 1703930). The membranes were blocked with Intercept Blocking Buffer (LI-COR cat. 927-70001) in LI-COR Western Blot boxes for 1 h at rt. The membranes were washed with 1× Tris-buffered saline-Tween-20 (TBST, 1× solution was made from 20×TBST solution, ThermoFisher Scientific cat. 28360) for 5 min 4 times. The membranes were incubated overnight at 4° C. in Intercept Blocking Buffer supplemented with primary antibodies (normally antibody:buffer 1:1000) and Tween-20. The membranes were washed with TBST for 5 min 4 times and were incubated with Intercept Blocking Buffer supplemented with IRDye 800CE Secondary Antibodies, IRDye 680RD Secondary Antibodies (LI-COR biosciences), Tween-20, and 10% SDS solution, for 1 h at rt. The membranes were then washed with TBST for 5 min 4 times and rinsed with deionized water before drying and scanning with Odyssey Dlx Amazing System (LI-COR). The immunoblots were finally quantified by the software.
In general terms: A western blot detects proteins with antibodies after separation by electrophoresis.
On to `CC(C)(C)[C@H](NC(=O)c1cc2cc(C(F)(F)P(=O)(O)O)ccc2s1)C(=O)N1C[C@H](OCc2ccccc2)C[C@H]1C(=O)N(CCC(=O)N1CCC(C#Cc2cccc3c2CN(C2CCC(=O)NC2=O)C3=O)CC1)c1ccc(Br)cc1` (stereo partly drawn) [Compound 621, ((2-(((2S)-1-((2S,4R)-4-(benzyloxy)-2-((4-bromophenyl)(3-(4-((2-(2,6-dioxopiperidin-3-yl)-1-oxoisoindolin-4-yl)ethynyl)piperidin-1-yl)-3-oxopropyl)carbamoyl)pyrrolidin-1-yl)-3,3-dimethyl-1-oxobutan-2-yl)carbamoyl)benzo[b]thiophen-5-yl)difluoromethyl)phosphonic acid], for which the DC50 is over 300 nM. Take `CC(C)(C)[C@H](NC(=O)c1cc2cc(C(F)(F)P(=O)(O)O)ccc2s1)C(=O)N1C[C@@H](OCc2ccccc2)C[C@H]1C(=O)N(CCC(=O)NCCC#Cc1cccc2c1CN(C1CCC(=O)NC1=O)C2=O)c1ccc(Br)cc1` (stereo partly drawn) [Compound 622, ((2-(((2S)-1-((2S,4S)-4-(benzyloxy)-2-((4-bromophenyl)(3-((4-(2-(2,6-dioxopiperidin-3-yl)-1-oxoisoindolin-4-yl)but-3-yn-1-yl)amino)-3-oxopropyl)carbamoyl)pyrrolidin-1-yl)-3,3-dimethyl-1-oxobutan-2-yl)carbamoyl)benzo[b]thiophen-5-yl)difluoromethyl)phosphonic acid]: the DC50 is over 300 nM. Consider `CC(C)(C)[C@H](NC(=O)c1cc2cc(C(F)(F)P(=O)(O)O)ccc2s1)C(=O)N1C[C@@H](OCc2ccccc2)C[C@H]1C(=O)N(CCC(=O)NCCCC#Cc1cccc2c1CN(C1CCC(=O)NC1=O)C2=O)c1ccc(Br)cc1` (stereo partly drawn) [Compound 623, ((2-(((2S)-1-((2S,4S)-4-(benzyloxy)-2-((4-bromophenyl)(3-((5-(2-(2,6-dioxopiperidin-3-yl)-1-oxoisoindolin-4-yl)pent-4-yn-1-yl)amino)-3-oxopropyl)carbamoyl)pyrrolidin-1-yl)-3,3-dimethyl-1-oxobutan-2-yl)carbamoyl)benzo[b]thiophen-5-yl)difluoromethyl)phosphonic acid], for which the DC50 was over 300 nM. Then `CC(C)(C)[C@H](NC(=O)c1cc2cc(C(F)(F)P(=O)(O)O)ccc2s1)C(=O)N1C[C@@H](OCc2ccccc2)C[C@H]1C(=O)N(CCC(=O)NCCCCC#Cc1cccc2c1CN(C1CCC(=O)NC1=O)C2=O)c1ccc(Br)cc1` (stereo partly drawn) [Compound 624, ((2-(((2S)-1-((2S,4S)-4-(benzyloxy)-2-((4-bromophenyl)(3-((6-(2-(2,6-dioxopiperidin-3-yl)-1-oxoisoindolin-4-yl)hex-5-yn-1-yl)amino)-3-oxopropyl)carbamoyl)pyrrolidin-1-yl)-3,3-dimethyl-1-oxobutan-2-yl)carbamoyl)benzo[b]thiophen-5-yl)difluoromethyl)phosphonic acid], with over 300 nM; and `CCN1CC[C@H]2CC[C@@H](C(=O)N(CCC(=O)NCC#Cc3cccc4c3CN(C3CCC(=O)NC3=O)C4=O)c3ccc(Br)cc3)N2C(=O)[C@@H](NC(=O)c2cc3cc(C(F)(F)P(=O)(O)O)ccc3s2)C1` (stereo partly drawn) [Compound 625, ((2-(((5S,8S,10aR)-8-((4-bromophenyl)(3-((3-(2-(2,6-dioxopiperidin-3-yl)-1-oxoisoindolin-4-yl)prop-2-yn-1-yl)amino)-3-oxopropyl)carbamoyl)-3-ethyl-6-oxodecahydropyrrolo[1,2-a][1,5]diazocin-5-yl)carbamoyl)benzo[b]thiophen-5-yl)difluoromethyl)phosphonic acid], with over 300 nM. In the case of `CCN1CC[C@H]2CC[C@@H](C(=O)N(CCC(=O)NCCC#Cc3cccc4c3CN(C3CCC(=O)NC3=O)C4=O)c3ccc(Br)cc3)N2C(=O)[C@@H](NC(=O)c2cc3cc(C(F)(F)P(=O)(O)O)ccc3s2)C1` (stereo partly drawn) [Compound 626, ((2-(((5S,8S,10aR)-8-((4-bromophenyl)(3-((4-(2-(2,6-dioxopiperidin-3-yl)-1-oxoisoindolin-4-yl)but-3-yn-1-yl)amino)-3-oxopropyl)carbamoyl)-3-ethyl-6-oxodecahydropyrrolo[1,2-a][1,5]diazocin-5-yl)carbamoyl)benzo[b]thiophen-5-yl)difluoromethyl)phosphonic acid] it was over 300 nM; in that of `CCN1CC[C@H]2CC[C@@H](C(=O)N(CCC(=O)NCCCC#Cc3cccc4c3CN(C3CCC(=O)NC3=O)C4=O)c3ccc(Br)cc3)N2C(=O)[C@@H](NC(=O)c2cc3cc(C(F)(F)P(=O)(O)O)ccc3s2)C1` (stereo partly drawn) [Compound 627, ((2-(((5S,8S,10aR)-8-((4-bromophenyl)(3-((5-(2-(2,6-dioxopiperidin-3-yl)-1-oxoisoindolin-4-yl)pent-4-yn-1-yl)amino)-3-oxopropyl)carbamoyl)-3-ethyl-6-oxodecahydropyrrolo[1,2-a][1,5]diazocin-5-yl)carbamoyl)benzo[b]thiophen-5-yl)difluoromethyl)phosphonic acid], over 300 nM; in that of `CCN1CC[C@H]2CC[C@@H](C(=O)N(CCC(=O)NCCCCC#Cc3cccc4c3CN(C3CCC(=O)NC3=O)C4=O)c3ccc(Br)cc3)N2C(=O)[C@@H](NC(=O)c2cc3cc(C(F)(F)P(=O)(O)O)ccc3s2)C1` (stereo partly drawn) [Compound 628, ((2-(((5S,8S,10aR)-8-((4-bromophenyl)(3-((6-(2-(2,6-dioxopiperidin-3-yl)-1-oxoisoindolin-4-yl)hex-5-yn-1-yl)amino)-3-oxopropyl)carbamoyl)-3-ethyl-6-oxodecahydropyrrolo[1,2-a][1,5]diazocin-5-yl)carbamoyl)benzo[b]thiophen-5-yl)difluoromethyl)phosphonic acid], over 300 nM. As for `CCN1CC[C@H]2CC[C@@H](C(=O)N(CCC(=O)NCCCCCC#Cc3cccc4c3CN(C3CCC(=O)NC3=O)C4=O)c3ccc(Br)cc3)N2C(=O)[C@@H](NC(=O)c2cc3cc(C(F)(F)P(=O)(O)O)ccc3s2)C1` (stereo partly drawn) [Compound 629, ((2-(((5S,8S,10aR)-8-((4-bromophenyl)(3-((7-(2-(2,6-dioxopiperidin-3-yl)-1-oxoisoindolin-4-yl)hept-6-yn-1-yl)amino)-3-oxopropyl)carbamoyl)-3-ethyl-6-oxodecahydropyrrolo[1,2-a][1,5]diazocin-5-yl)carbamoyl)benzo[b]thiophen-5-yl)difluoromethyl)phosphonic acid], the DC50 is over 300 nM. Take `CCN1CC[C@H]2CC[C@@H](C(=O)N(CCC(=O)N3CCC(C#Cc4cccc5c4CN(C4CCC(=O)NC4=O)C5=O)CC3)c3ccc(Br)cc3)N2C(=O)[C@@H](NC(=O)c2cc3cc(C(F)(F)P(=O)(O)O)ccc3s2)C1` (stereo partly drawn) [Compound 630, ((2-(((5S,8S,10aR)-8-((4-bromophenyl)(3-(4-((2-(2,6-dioxopiperidin-3-yl)-1-oxoisoindolin-4-yl)ethynyl)piperidin-1-yl)-3-oxopropyl)carbamoyl)-3-ethyl-6-oxodecahydropyrrolo[1,2-a][1,5]diazocin-5-yl)carbamoyl)benzo[b]thiophen-5-yl)difluoromethyl)phosphonic acid]: the 50% degradation concentration (DC50) was over 300 nM. For the compound `CCN1CC[C@H]2CC[C@@H](C(=O)N(CCC(=O)N3CCC(Nc4cccc5c4CN(C4CCC(=O)NC4=O)C5=O)CC3)c3ccc(Br)cc3)N2C(=O)[C@@H](NC(=O)c2cc3cc(C(F)(F)P(=O)(O)O)ccc3s2)C1` (stereo partly drawn) [Compound 631, ((2-(((5S,8S,10aR)-8-((4-bromophenyl)(3-(4-((2-(2,6-dioxopiperidin-3-yl)-1-oxoisoindolin-4-yl)amino)piperidin-1-yl)-3-oxopropyl)carbamoyl)-3-ethyl-6-oxodecahydropyrrolo[1,2-a][1,5]diazocin-5-yl)carbamoyl)benzo[b]thiophen-5-yl)difluoromethyl)phosphonic acid], the DC50 is over 300 nM.
